Assay results published in patent US8445523B2, “Dioxo-imidazolidine derivatives, which inhibit the enzyme SOAT-1, and pharmaceutical and cosmetic compositions containing them” (Galderma Research & Development, priority 2009, dated 2013).

The compounds below were run against T1, enzyme ACAT-1 (Homo sapiens, UniProt P35610) (assay: HepG2 NBD-cholesterol fluorescence test of inhibitory activity towards ACAT-1 (SOAT-1)). Conditions: HepG2 cells, NBD-cholesterol 1 μg/ml, incubation 6 hours at 37° C., fluorescence read (490/540 nm).
T1 construct: endogenous in cells; host or cells: HepG2
T1 sequence (P35610 1-550): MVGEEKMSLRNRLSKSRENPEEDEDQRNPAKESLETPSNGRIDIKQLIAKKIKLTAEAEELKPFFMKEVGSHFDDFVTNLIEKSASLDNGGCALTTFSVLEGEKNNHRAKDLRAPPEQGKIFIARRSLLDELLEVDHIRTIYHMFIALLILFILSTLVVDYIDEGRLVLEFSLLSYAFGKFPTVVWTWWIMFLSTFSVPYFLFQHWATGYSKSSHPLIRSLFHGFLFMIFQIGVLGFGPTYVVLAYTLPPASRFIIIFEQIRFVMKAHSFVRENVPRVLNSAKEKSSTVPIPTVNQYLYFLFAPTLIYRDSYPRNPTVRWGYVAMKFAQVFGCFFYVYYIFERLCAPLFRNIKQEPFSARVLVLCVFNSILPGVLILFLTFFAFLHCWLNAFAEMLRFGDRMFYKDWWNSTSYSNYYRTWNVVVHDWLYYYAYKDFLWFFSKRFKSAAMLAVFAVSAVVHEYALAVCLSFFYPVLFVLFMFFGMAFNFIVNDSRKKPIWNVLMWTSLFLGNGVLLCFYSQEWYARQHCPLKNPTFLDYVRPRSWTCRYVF
Assay type: cell-based
Method: The compounds (I) according to the invention, and also the pharmaceutically acceptable salts, solvates and/or hydrates thereof, have inhibitory properties on the enzyme SOAT-1. This inhibitory activity on the enzyme SOAT-1 is measured according to a HepG2 primary enzymatic test, as described in Example 11.
The compounds of formula (I) according to the invention were subjected to a test for evaluating their inhibitory activity towards the enzyme ACAT-1, inspired by the following publication: “Identification of ACAT1- and ACAT2-specific inhibitors using a novel, cell based fluorescence assay: individual ACAT uniqueness”, J. Lipid. Res. (2004) vol. 45, pages 378-386.
The principle of this test is based on the use of NBD-cholesterol, a cholesterol analogue whose fluorescence depends on its environment. When this molecule is in a polar environment, it is weakly fluorescent, whereas in a non-polar environment, it is strongly fluorescent. Free NBD-cholesterol becomes inserted in cell membranes and is weakly fluorescent in this polar environment. When NBD-cholesterol is esterified with ACAT, the NBD-cholesterol ester enters non-polar lipid droplets and is then strongly fluorescent.
The method below is applied: HepG2 cells are incubated in the presence of NBD-cholesterol (1 μg/ml) and of the test compound of formula (I) in black transparent-bottomed 96-well plates, at a rate of 30 000 cells per well. After incubation for 6 hours at 37° C. under 5% CO2, the medium is removed by turning upside-down and the cells are washed with twice 100 μl of PBS. After addition of 50 μl of lysis buffer (10 mM NaPO4, 1% Igepal), the plates are shaken for 5 minutes and the fluorescence is read (excitation at 490 nm, emission at 540 nm) on a Fusion machine (Perkin-Elmer).

IC50 [nM]	SMILES
9	CC(C)c1cccc(C(C)C)c1NC(=O)CN1C(=O)N(c2cccnc2)C2(CCCCC2)C1=O [compound (1)]
0.6	Cc1ccc(N2C(=O)N(CC(=O)Nc3c(C(C)C)cccc3C(C)C)C(=O)C23CCCCC3)cn1 [compound (4), N-(2,6-Diisopropylphenyl)-2-[1-(6-methyl-pyridin-3-yl)-2,4-dioxo-1,3-diazaspiro[4.5]dec-3-yl]-acetamide]
79	Cc1ccc(N2C(=O)N(CC(=O)Nc3c(C(C)C)cccc3C(C)C)C(=O)C23CCOCC3)cn1 [compound (5)]
3	COc1ccc(N2C(=O)N(CC(=O)Nc3c(C(C)C)cccc3C(C)C)C(=O)C23CCCCC3)cn1 [compound (2)]
5.5	Cc1cnc(N2C(=O)N(CC(=O)Nc3c(C(C)C)cccc3C(C)C)C(=O)C23CCCCC3)cn1 [compound (3)]
